Patent publication US9976183B2, “Biomarkers for cancers responsive to modulators of HEC1 activity” (TAIVEX THERAPEUTICS CORPORATION, priority 2011, dated 2018)

How the values were obtained:
Type in all cases: cell-based
PLC/PRF/5 = assay: Drug sensitivity, MTS cell viability assay (GI50); conditions: Homo sapiens, PLC/PRF/5, 96 hours
Procedure: (§1) Drug sensitivity: Cell lines were screened for drug sensitivity by treatment with specified drugs 24 hours after seeding in appropriate seeding numbers into 96 well plates containing low glucose DME with 10% FBS. The drug was added to the plate in triplicate wells, and the cells are incubated in drug treated medium for 96 hours before cell viability was determined by MTS assay using CellTiter 96® Aqueous non-radioactive cell proliferation assay system (Promega, Madison, Wis. 53711 USA). The MTS assay was performed according to the manufacturer's instructions. Optical density was measured using a Bio-Tek 340 spectrophotometer (Bio-Tek, Winooski, Vt. 05404) and optical readings were then processed in Excel (Microsoft, Redmond, Wash. 98052-7329) and GraphPad Prism 5 linear regression software (GraphPad Software, La Jolla, Calif. 92037 USA) to determine concentration-response curves for calculating relative GI50s. […] The % growth inhibition of the test drug on cells were calculated as: [1−(Test Value)/(Control Value)]×100; these values were used to plot concentration-response curves, and then analyzed with linear regression software.

MDA-MB-231 = assay: Drug sensitivity, MTS cell viability assay (GI50)
Procedure: as §1

MDA-MB-468 = assay: Drug sensitivity, MTS cell viability assay (GI50)
Procedure: as §1

T47D = assay: Drug sensitivity, MTS cell viability assay (GI50); conditions: Homo sapiens, 96 hours
Procedure: as §1

MDA-MB-453 = assay: Drug sensitivity, MTS cell viability assay (GI50); conditions: Homo sapiens, MDA-MB-453, 96 hours
Procedure: as §1

HepG2 [1] = assay: Drug sensitivity, MTS cell viability assay (GI50); conditions: Homo sapiens; for GI50: HepG2, 96 hours, MTS
Procedure: as §1

ZR-75-1 = assay: Drug sensitivity, MTS cell viability assay (GI50); conditions: Homo sapiens, ZR-75-1, 96 hours
Procedure: as §1

Hep3B [2] = assay: Drug sensitivity, MTS cell viability assay (GI50); conditions: Homo sapiens, 96 h
Procedure: as §1

Huh7 [3] = assay: Drug sensitivity, MTS cell viability assay (GI50)
Procedure: as §1

K562 [4] = assay: Drug sensitivity, MTS cell viability assay (GI50); conditions: Homo sapiens, K562, 96 h
Procedure: as §1

Hs578T = assay: Drug sensitivity, MTS cell viability assay (GI50); conditions: Homo sapiens, Hs-578T, 96 hours
Procedure: as §1

HeLa [5] = assay: Drug sensitivity, MTS cell viability assay (GI50); conditions: Homo sapiens, 96 hours
Procedure: as §1

MEX-SA/Dx5 = assay: Drug sensitivity, MTS assay, drug resistant cell line; conditions: MEX-SA/Dx5, multi-drug resistant uterine sarcoma
Procedure: as §1

NCI/ADR-RES = assay: as above; conditions: Homo sapiens, multi-drug resistant uterine sarcoma
Procedure: as §1

K562R = assay: as above; conditions: Homo sapiens, K-562R, Gleevec resistant myelogenous leukemia
Procedure: as §1

Hep3B [6] = assay: Synergy of Hec1 inhibitor with cytotoxic drug (combination index, MTS); set-up: key to Combination Index: CI = (CA,X/ICx,A)+(CB,X/ICx,B) at x% drug effect
Procedure: (§2) Synergy: GI50s for selected drugs were determined and used to calculate a concentration ratio for use synergy assays with Hec1 inhibitors. Cells were treated with drugs 24 hours after being seeded in appropriate seeding numbers into 96 well plates containing low glucose DME with 10% FBS. […] Cell viability was determined by MTS assay using a CellTiter 96® Aqueous non-radioactive cell proliferation assay system (Promega, Madison, Wis. 53711 USA) according to the manufacturer's instructions. Optical density was determined using a Bio-Tek 340 spectrophotometer (Bio-Tek, Winooski, Vt. 05404) and were then processed using Excel (Microsoft, Redmond, Wash. 98052-7329) and GraphPad Prism 5 linear regression software (GraphPad Software, La Jolla, Calif. 92037 USA) to determine concentration-response curves for calculating relative GI50s. Synergy was determined by calculating a combination index value using the formula CI (combination index)=(CA,X/ICx,A)+(CB,X/ICx,B), where CA,X and CB,X are the concentrations of drug A and drug B used in combination to achieve x % drug effect. ICx,A and ICx,B are the concentrations for single agents to achieve the same effect.
(§3) Hec1 inhibitor-responsive cancer cells used for screening were treated with a mixture of Hec1 inhibitor and select anti-cancer drug at appropriate concentration ratios and evaluated for cell viability.

Huh7 [7] = assay: as above; set-up: key to Combination Index: CI = (CA,X/ICx,A)+(CB,X/ICx,B) at x% drug effect
Procedure: as §2, §3

K562 [8] = assay: as above
Procedure: as §2, §3

HeLa [9] = assay: as above
Procedure: as §2, §3

MB-468 = assay: as above
Procedure: as §2, §3

MB-231 = assay: as above
Procedure: as §2, §3

HepG2 [10] = assay: as above; set-up: key: CI = (CA,X/ICx,A)+(CB,X/ICx,B) at x% drug effect
Procedure: as §2, §3

PCL/PRF/5 = assay: as above; set-up: key: CI = (CA,X/ICx,A)+(CB,X/ICx,B) at x% drug effect
Procedure: as §2, §3

[11] = Homo sapiens, Huh-7, 96 h, Huh7, 96 hours, MTS
[12] = in combination with doxorubicin
[13] = in combination with Taxol (paclitaxel)

CNC(=O)c1cc(Oc2ccc(NC(=O)Nc3ccc(Cl)c(C(F)(F)F)c3)cc2)ccn1 [sorafenib]
GI50 (PLC/PRF/5): 3760 nM
GI50 (MDA-MB-231; Homo sapiens, MDA-MB-231, 96 h): 3040 nM
GI50 (MDA-MB-468; Homo sapiens, MDA-MB-468, 96 h): 3170 nM
GI50 (T47D): 1730 nM
GI50 (MDA-MB-453): 2520 nM
GI50 (HepG2 [1]): 8.25 µM
GI50 (ZR-75-1): 4.34 µM
GI50 (Hep3B [2]): 3680 nM
GI50 (Huh7 [3]; [11]): 4500 nM

CC[C@@]1(O)C(=O)OCc2c1cc1n(c2=O)Cc2cc3c(CN(C)C)c(O)ccc3nc2-1 [topotecan]
GI50 (PLC/PRF/5): 174 nM
GI50 (K562 [4]): 36.1 nM
GI50 (MDA-MB-231; Homo sapiens, MDA-MB-231, 96 h): 347 nM
GI50 (Hs578T): 4960 nM
GI50 (MDA-MB-468; Homo sapiens, MDA-MB-468, 96 h): 10.7 nM
GI50 (T47D): 9.43 nM
GI50 (MDA-MB-453): 92.3 nM
GI50 (HepG2 [1]): 0.435 µM
GI50 (HeLa [5]): 637 nM
GI50 (ZR-75-1): 0.0363 µM
GI50 (Hep3B [2]): 422 nM
GI50 (Huh7 [3]; Huh7, 96 hours, MTS): 50.9 nM

O=C(Cc1ccc(-c2ccc(OCCN3CCOCC3)cc2)cn1)NCc1ccccc1 [KX01]
GI50 (Huh7 [3]; Huh7, 96 hours, MTS): 27.2 nM

CC(=O)O[C@H]1C(=O)[C@@]2(C)[C@H]([C@H](OC(=O)c3ccccc3)[C@]3(O)C[C@H](OC(=O)[C@H](O)[C@@H](NC(=O)c4ccccc4)c4ccccc4)C(C)=C1C3(C)C)[C@]1(OC(C)=O)CO[C@@H]1C[C@@H]2O [paclitaxel]
GI50 (PLC/PRF/5): 8.58 nM
GI50 (MDA-MB-231; Homo sapiens, MDA-MB-231, 96 h): 3 nM
GI50 (MDA-MB-231; MDA-MB-231, 96 hours): 4.91 nM
GI50 (Hs578T): 8.39 nM
GI50 (MDA-MB-468; Homo sapiens, MDA-MB-468, 96 h): 2.38 nM
GI50 (T47D): 3.19 nM
GI50 (MDA-MB-453): 1.42 nM
GI50 (HepG2 [1]; bound given in μM): > 50 µM
IC50 (HepG2 [1]; HepG2, Taxol-resistant): > 10000 nM
GI50 (HeLa [5]): 7.8 nM
GI50 (ZR-75-1; bound given in μM): > 10 µM
GI50 (Hep3B [2]): 9.47 nM
GI50 (Huh7 [3]; Huh7, 96 hours, MTS): 93.5 nM
GI50 (MEX-SA/Dx5): 6250 nM
GI50 (NCI/ADR-RES): 2330 nM
GI50 (K562R): 34.5 nM

COc1cccc2c1C(=O)c1c(O)c3c(c(O)c1C2=O)C[C@@](O)(C(=O)CO)C[C@@H]3O[C@H]1C[C@H](N)[C@H](O)[C@H](C)O1 [doxorubicin]
GI50 (PLC/PRF/5): 69.7 nM
GI50 (K562 [4]): 36.2 nM
GI50 (Hs578T): 711 nM
GI50 (MDA-MB-468; Homo sapiens, MDA-MB-468, 96 h): 28.3 nM
GI50 (MDA-MB-468; MDA-MB-468, 96 hours): 27 nM
GI50 (T47D): 11.9 nM
GI50 (MDA-MB-453): 158 nM
GI50 (HepG2 [1]): 0.746 µM
GI50 (HeLa [5]): 242 nM
GI50 (ZR-75-1): 0.0929 µM
GI50 (Hep3B [2]): 248 nM
GI50 (Huh7 [3]; [11]): 183 nM
GI50 (Huh7 [3]; Homo sapiens, Huh-7, Huh7, unit inferred): 183 nM

COc1ccc(Oc2cc(C)c(-c3csc(NC(=O)c4ccnc(F)c4)n3)c(C)c2)cc1 [compound 101015, 2-fluoro-N-(4-(4-(4-methoxyphenoxy)-2,6-dimethylphenyl)thiazol-2-yl)isonicotinamide]
Combination Index (Hep3B [6]; in combination with KX01): 2.32
Combination Index (Hep3B [6]; in combination with Taxol): 2.38
Combination Index (Hep3B [6]; [12]): 2.00
Combination Index (Hep3B [6]; in combination with sorafenib): 1.91
Combination Index (Hep3B [6]; in combination with topotecan): 1.05
Combination Index (Huh7 [7]; in combination with KX01 (KXO1)): 1.08
Combination Index (Huh7 [7]; [13]): 0.32
Combination Index (Huh7 [7]; [12]): 0.54
Combination Index (Huh7 [7]; in combination with sorafenib): 1.08
Combination Index (Huh7 [7]; in combination with topotecan): 0.62
Combination Index (K562 [8]; [13]): 0.62
Combination Index (K562 [8]; [12]): 0.62
Combination Index (K562 [8]; in combination with topotecan): 1.12
Combination Index (HeLa [9]; in combination with Taxol): 1.01
Combination Index (HeLa [9]; [12]): 6.83
Combination Index (HeLa [9]; in combination with topotecan): 1.58
Combination Index (MB-468; in combination with Taxol): 1.16
Combination Index (MB-468; [12]): 1.23
Combination Index (MB-468; in combination with topotecan): 0.74
Combination Index (MB-231; [13]): 0.98
Combination Index (MB-231; [12]): 1.75
Combination Index (MB-231; in combination with topotecan): 0.85
Combination Index (HepG2 [10]; in combination with KX01): 1.68
Combination Index (HepG2 [10]; [12]): 1.74
Combination Index (HepG2 [10]; in combination with sorafenib): 0.89
Combination Index (HepG2 [10]; in combination with topotecan): 1.92
Combination Index (PCL/PRF/5; in combination with KX01): 1.31
Combination Index (PCL/PRF/5; in combination with Taxol): 0.99
Combination Index (PCL/PRF/5; [12]): 1.65
Combination Index (PCL/PRF/5; in combination with sorafenib): 1.15
Combination Index (PCL/PRF/5; in combination with topotecan): 1.17
GI50 (MEX-SA/Dx5): 34.9 nM
GI50 (NCI/ADR-RES): 21.6 nM
GI50 (K562R): 26 nM
